These results are taken from US10294229B2, “Heteroaryl substituted aminopyridine compounds” (BRISTOL-MYERS SQUIBB COMPANY, priority 2015, dated 2019).

Where only a bound is given, the exact number is not on record here.

The nature of data set [1]: Caco-2 Permeability Assay. As to conditions: human, Caco-2, test compound 3 μM. It counts as in vitro ADME. On the procedure: Caco-2 Permeability Assay
Thirteen to 27 days prior to assay, Caco-2 cells were seeded onto collagen-coated polycarbonate filter membranes in 24-well transwell plates at a density of 1.45×10^5 cells/cm^2, approximately 4.8×10^4 cells per well. The cells were grown in a culture medium consisting of DMEM supplemented with 10% fetal bovine serum, 10 mM HEPES, 1% nonessential amino acids, 2 mM L-glutamine, 100 U/mL penicillin-G, and 100 μg/mL streptomycin. The culture medium was replaced every 3 days and the cells were maintained at 37° C. in a 95% relative humidity and 5% CO2 atmosphere. The cells were evaluated for tight junction formation just prior to assay. The test compound was solubilized to 10 mM in 100% DMSO and diluted to 3 μM in assay buffer. Permeability studies were initiated by adding 200 μL assay buffer plus/minus compound to the apical transwell compartment and 600 μL assay buffer plus/minus compound to the basolateral compartment of the 24-well transwell low-binding cluster plate. For apical-to-basolateral (A to B) permeability (absorptive direction), buffer containing compound was placed in the apical compartment (donor wells), while buffer alone was placed in the corresponding basolateral compartments (receiver wells). For basolateral-to-apical (B to A) permeability (secretive direction), buffer containing compound was placed in the basolateral compartment (donor wells), while buffer alone was placed in the corresponding apical compartments (receiver wells). Transwells were then incubated for 2 hours at 37° C. in a 95% relative humidity and 5% CO2 atmosphere with gentle agitation. Following incubation, 100 μL was removed from each apical and basolateral compartment and transferred to 96-well low binding plates that had been previously loaded with 100 μL/well of acetonitrile containing 250 nM propranolol, 250 nM diclofenac, and 500 nM tolbutamide as internal standards. The samples were subsequently analyzed by LC-MS/MS to determine concentrations of compound.
In general terms: Caco-2 monolayers are a common model of the intestinal barrier.

The target of data set [2] is IRAK4 (Homo sapiens (Human), UniProt Q9NWZ3). Put plainly: IRAK4 Inhibition Assay. The conditions noted are these: ATP 500 μM; IRAK4 0.6 nM. In kind it is biochemical. In a few lines:
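Enzyme 0.6 nM, ATP 500 μM, FL-peptide 1.5 μM, DMSO 1.6%; HEPES pH 7.2/MgCl2/Brij 35/DTT buffer. RT, 60 min, EDTA stop. Mobility-shift product/substrate ratio; % inhib vs no-enzyme and vehicle controls.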

For data set [3], the system named is Human whole blood stimulated with a TLR2 agonist (lipoteichoic acid), IL-6 levels. Nature of the data set: IRAK4 Whole Blood Assay. In kind it is cell-based. As to conditions: Homo sapiens, lipoteichoic acid 10 μg/mL. A digest of the protocol:
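ACD-A-anticoagulated human whole blood was preincubated with compounds for 60 min at 37 °C under 5% CO2. It was then stimulated with 10 μg/mL lipoteichoic acid (final) in RPMI for 5 h. IL-6 in plasma supernatants was measured by flow cytometry bead assay.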

IRAK4, sequence (Q9NWZ3 whole entry, species assumed): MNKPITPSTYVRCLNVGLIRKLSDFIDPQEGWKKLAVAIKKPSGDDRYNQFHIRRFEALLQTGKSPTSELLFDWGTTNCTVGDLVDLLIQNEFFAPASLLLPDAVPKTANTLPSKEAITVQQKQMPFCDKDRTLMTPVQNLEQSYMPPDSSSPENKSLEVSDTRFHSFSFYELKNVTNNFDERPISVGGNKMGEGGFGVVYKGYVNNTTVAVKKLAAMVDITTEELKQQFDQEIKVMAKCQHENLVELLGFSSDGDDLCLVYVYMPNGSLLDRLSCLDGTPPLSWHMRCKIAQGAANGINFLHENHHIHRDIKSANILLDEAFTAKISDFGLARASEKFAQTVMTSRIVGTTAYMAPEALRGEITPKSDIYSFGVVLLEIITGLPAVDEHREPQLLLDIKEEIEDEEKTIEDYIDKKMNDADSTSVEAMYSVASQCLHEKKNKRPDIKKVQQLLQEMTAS

In turn, `CC(C)Nc1cc(-n2ncc3cc(C#N)c(N)nc32)ncc1-c1cn(CC(C)(C)O)nn1` [Example 97, 6-amino-1-(5-(1-(2-hydroxy-2-methylpropyl)-1H-1,2,3-triazol-4-yl)-4-(isopropylamino)pyridin-2-yl)-1H-pyrazolo[3,4-b]pyridine-5-carbonitrile] returned an apparent permeability coefficient (Papp) at 2 h, 3 µM in data set [1] of less than 1.5 ×10⁻⁶ cm/s. In addition, in data set [2], the half-inhibitory concentration (IC50) was found to be 0.008 µM. In data set [3], this compound registered a concentration for a half-maximal effect (EC50) of 1.44 µM.
`CCCn1cc(-c2cnc(-n3ncc4cc(C#N)c(N)nc43)cc2NC(C)C)nn1` [Example 33, 6-amino-1-(4-(isopropylamino)-5-(1-propyl-1H-1,2,3-triazol-4-yl)pyridin-2-yl)-1H-pyrazolo[3,4-b]pyridine-5-carbonitrile]: the apparent permeability (Papp) at 2 h, 3 µM in data set [1] was 16.7 ×10⁻⁶ cm/s. Further, the half-inhibitory concentration (IC50) in data set [2] turned out to be 0.003 µM. This compound returned an EC50 in data set [3] of 3.72 µM.
On to `CC(C)Nc1cc(-n2ncc3cnc(N)nc32)ncc1-n1cc(CCC(C)(C)F)nn1` [Example 351, 1-(5-(4-(3-fluoro-3-methylbutyl)-1H-1,2,3-triazol-1-yl)-4-(isopropylamino)pyridin-2-yl)-1H-pyrazolo[3,4-d]pyrimidin-6-amine], for which the apparent permeability coefficient (Papp) at 2 h, 3 µM in data set [1] was 30.6 ×10⁻⁶ cm/s. Also, the IC50 in data set [2] was found to be 0.004 µM. Besides, the concentration giving a half-maximal response (EC50) in data set [3] was found to be 0.37 µM.
Taken in the same sequence, the figures for `CC(C)Nc1cc(-n2ncc3cc(C#N)cnc32)ncc1-c1cc([C@@H]2C[C@H](O)CCN2)no1` [Example 424, 1-(5-(3-((2S,4R)-4-hydroxypiperidin-2-yl)isoxazol-5-yl)-4-(isopropylamino)pyridin-2-yl)-1H-pyrazolo[3,4-b]pyridine-5-carbonitrile] were less than 1.5 ×10⁻⁶ cm/s, 0.01 µM and 0.18 µM.
In data set [1], `N#Cc1cnc2c(cnn2-c2cc(NC3CC3)c(-n3cc(C4CCOCC4)nn3)cn2)c1` [Example 348, 1-(4-(cyclopropylamino)-5-(4-(tetrahydro-2H-pyran-4-yl)-1H-1,2,3-triazol-1-yl)pyridin-2-yl)-1H-pyrazolo[3,4-b]pyridine-5-carbonitrile] showed a Papp at 2 h, 3 µM of 41 ×10⁻⁶ cm/s. Further, the IC50 in data set [2] turned out to be 0.013 µM. Further, the EC50 in data set [3] is 0.17 µM.
In data set [1], `CC(=O)N1CCC(c2cc(-c3cnc(-n4ncc5cc(C#N)cnc54)cc3NC(C)C)on2)CC1` [Example 402, 1-(5-(3-(1-acetylpiperidin-4-yl)isoxazol-5-yl)-4-(isopropylamino)pyridin-2-yl)-1H-pyrazolo[3,4-b]pyridine-5-carbonitrile] displayed an apparent permeability (Papp) at 2 h, 3 µM of 19.2 ×10⁻⁶ cm/s. Besides, the half-inhibitory concentration (IC50) in data set [2] amounted to 0.002 µM. In data set [3], this compound returned a half-maximal effective concentration (EC50) of 0.25 µM.
For the compound `CC(C)Nc1cc(-n2cnc3cc(C#N)cnc32)ncc1-c1cn(C2CN(C)C2)nn1` [Example 152, 3-(4-(isopropylamino)-5-(1-(1-methylazetidin-3-yl)-1H-1,2,3-triazol-4-yl)pyridin-2-yl)-3H-imidazo[4,5-b]pyridine-6-carbonitrile], the Papp at 2 h, 3 µM in data set [1] came out at 15.8 ×10⁻⁶ cm/s. Also, the 50% inhibitory concentration (IC50) in data set [2] was 0.004 µM. This compound also showed an EC50 in data set [3] of 0.75 µM.
The compound `CNCCCc1cc(-c2cnc(-n3ncc4cc(C#N)cnc43)cc2NC(C)C)on1` [Example 414, 1-(4-(isopropylamino)-5-(3-(3-(methylamino)propyl)isoxazol-5-yl)pyridin-2-yl)-1H-pyrazolo[3,4-b]pyridine-5-carbonitrile] came in with a Papp at 2 h, 3 µM in data set [1] of less than 1.5 ×10⁻⁶ cm/s. In addition, the IC50 in data set [2] was 0.007 µM. The same compound returned a concentration for a half-maximal effect (EC50) in data set [3] of 0.25 µM.
The compound `CC(C)Nc1cc(-n2ncc3cc(C#N)cnc32)ncc1-c1cn([C@H]2CC[C@H](N)CC2)nn1` [Example 392, 1-(5-(1-((1r,4r)-4-aminocyclohexyl)-1H-1,2,3-triazol-4-yl)-4-(isopropylamino)pyridin-2-yl)-1H-pyrazolo[3,4-b]pyridine-5-carbonitrile] yielded an apparent permeability coefficient (Papp) at 2 h, 3 µM in data set [1] of less than 1.5 ×10⁻⁶ cm/s. In addition, the half-maximal inhibitory concentration (IC50) in data set [2] worked out at 0.003 µM. Besides, a half-maximal response in data set [3] (EC50) required 0.44 µM.
Turning to `CC(C)Nc1cc(-n2ncc3cc(C#N)cnc32)ncc1-c1cc(CC(C)(C)O)on1` [Example 438, 1-(5-(5-(2-hydroxy-2-methylpropyl)isoxazol-3-yl)-4-(isopropylamino)pyridin-2-yl)-1H-pyrazolo[3,4-b]pyridine-5-carbonitrile], the apparent permeability (Papp) at 2 h, 3 µM in data set [1] came to 27.3 ×10⁻⁶ cm/s. For the same compound, it took 0.23 µM to reach a half-maximal effect in data set [3] (EC50).
As to `CC(C)Nc1cc(-n2ncc3cc(C#N)cnc32)ncc1-c1cn([C@@H]2CCNC[C@@H]2F)nn1` (relative stereo) [Example 209, 1-(5-(1-((cis)-3-fluoropiperidin-4-yl)-1H-1,2,3-triazol-4-yl)-4-(isopropylamino)pyridin-2-yl)-1H-pyrazolo[3,4-b]pyridine-5-carbonitrile], the Papp at 2 h, 3 µM in data set [1] stood at 2.4 ×10⁻⁶ cm/s. Moreover, the response in data set [3] was half-maximal at 0.49 µM (EC50).
In turn, `CC(C)(O)CCc1cn(-c2cnc(-n3ncc4cc(C#N)cnc43)cc2NC2COC2)nn1` [Example 359, 1-(5-(4-(3-hydroxy-3-methylbutyl)-1H-1,2,3-triazol-1-yl)-4-(oxetan-3-ylamino)pyridin-2-yl)-1H-pyrazolo[3,4-b]pyridine-5-carbonitrile] returned an apparent permeability coefficient (Papp) at 2 h, 3 µM in data set [1] of less than 1.5 ×10⁻⁶ cm/s. The compound also gave a 50% effective concentration (EC50) in data set [3] of 0.22 µM.
For `COC(=O)NCC1CC(c2cnc(-n3ncc4cc(C#N)cnc43)cc2NC(C)C)=NO1` (single isomer, unassigned) [Example 436, Methyl ((3-(6-(5-cyano-1H-pyrazolo[3,4-b]pyridin-1-yl)-4-(isopropylamino)pyridin-3-yl)-4,5-dihydroisoxazol-5-yl)methyl)carbamate] the same measures were 31.9 ×10⁻⁶ cm/s and 0.29 µM.
For `COC(=O)NC1CCC(c2cc(-c3cnc(-n4ncc5cc(C#N)cnc54)cc3NC(C)C)on2)CC1` (stereo not drawn) [Example 411, methyl ((1s,4s)-4-(5-(6-(5-cyano-1H-pyrazolo[3,4-b]pyridin-1-yl)-4-(isopropylamino)pyridin-3-yl)isoxazol-3-yl)cyclohexyl)carbamate] the same measures were 26.9 ×10⁻⁶ cm/s and 0.43 µM.
For `N#Cc1cnc2c(cnn2-c2cc(NC3CC3)c(-c3cn([C@@H]4CNCC[C@H]4O)nn3)cn2)c1` (relative stereo) [Example 207, 1-(4-(cyclopropylamino)-5-(1-((trans)-4-hydroxypiperidin-3-yl)-1H-1,2,3-triazol-4-yl)pyridin-2-yl)-1H-pyrazolo[3,4-b]pyridine-5-carbonitrile] the same measures were less than 1.5 ×10⁻⁶ cm/s and 1.33 µM.
Regarding `CC(C)Nc1cc(-n2ncc3cc(C#N)cnc32)ncc1-n1cc(C2CCN(C(=O)CC(C)(C)O)CC2)nn1` [Example 360, 1-(5-(4-(1-(3-hydroxy-3-methylbutanoyl)piperidin-4-yl)-1H-1,2,3-triazol-1-yl)-4-(isopropylamino)pyridin-2-yl)-1H-pyrazolo[3,4-b]pyridine-5-carbonitrile], the Papp at 2 h, 3 µM in data set [1] is 3.6 ×10⁻⁶ cm/s. This compound also displayed an EC50 in data set [3] of 0.31 µM.
In data set [1], `CCNC1CCC(c2cn(-c3cnc(-n4ncc5cc(C#N)cnc54)cc3NC(C)C)nn2)CC1` (stereo not drawn) [Example 356, 1-(5-(4-((1s,4s)-4-(ethylamino)cyclohexyl)-1H-1,2,3-triazol-1-yl)-4-(isopropylamino)pyridin-2-yl)-1H-pyrazolo[3,4-b]pyridine-5-carbonitrile] displayed an apparent permeability (Papp) at 2 h, 3 µM of less than 1.5 ×10⁻⁶ cm/s. In data set [3], it took 0.27 µM to reach a half-maximal effect (EC50).
In data set [1], `CC(C)Nc1cc(-n2ncc3cc(C#N)cnc32)ncc1-c1cn(C2CN(CC(F)F)C2)nn1` [Example 153] returned a Papp at 2 h, 3 µM of 17.9 ×10⁻⁶ cm/s. In data set [3], this compound registered an EC50 of 0.27 µM.
In data set [1], `CC(C)Nc1cc(-n2cnc3cc(C#N)cnc32)ncc1-c1cn(CCC(F)(F)F)nn1` [Example 42, 3-(4-(isopropylamino)-5-(1-(3,3,3-trifluoropropyl)-1H-1,2,3-triazol-4-yl)pyridin-2-yl)-3H-imidazo[4,5-b]pyridine-6-carbonitrile] registered a Papp at 2 h, 3 µM of 5.7 ×10⁻⁶ cm/s. In data set [2], the IC50 was 0.005 µM.
In turn, `CC(=O)NC1CCC(c2cc(-c3cnc(-n4ncc5cc(C#N)cnc54)cc3NC(C)C)on2)CC1` (stereo not drawn) [Example 410, N-((1s,4s)-4-(5-(6-(5-cyano-1H-pyrazolo[3,4-b]pyridin-1-yl)-4-(isopropylamino)pyridin-3-yl)isoxazol-3-yl)cyclohexyl)acetamide] displayed a Papp at 2 h, 3 µM in data set [1] of 14.8 ×10⁻⁶ cm/s. Further, in data set [3], a half-maximal response (EC50) required 0.3 µM.
In data set [1], `CC(C)(O)CCc1cn(-c2cnc(-n3ncc4cc(C#N)cnc43)cc2NC2CCC(F)CC2)nn1` (stereo not drawn) [Example 374, 1-(4-(((1r,4r)-4-fluorocyclohexyl)amino)-5-(4-(3-hydroxy-3-methylbutyl)-1H-1,2,3-triazol-1-yl)pyridin-2-yl)-1H-pyrazolo[3,4-b]pyridine-5-carbonitrile] returned an apparent permeability coefficient (Papp) at 2 h, 3 µM of 3.2 ×10⁻⁶ cm/s. Besides, in data set [3], the EC50 came to 0.38 µM.

Broadly, the Papp is a coefficient for how fast a substance crosses the barrier. As a reminder, the IC50 is the concentration that gives 50% inhibition. A word on the EC50: it is the concentration needed to bring the measured effect to its halfway point.
